From patent US20250387406A1, “THERAPY FOR REDUCED OTOTOXICITY FROM CHEMOTHERAPEUTIC AGENT WITH PENTAAZA MACROCYCLIC RING COMPLEX” (GALERA LABS, LLC, priority 2022, published 2025)

How the values were obtained:
[1] = test system: rats subjected to an experimental model of colitis; conditions: rat colitis model, Cuzzocrea et al. 2001; cited from earlier work
hamster = hamster oral mucositis, Murphy et al. 2008; cited from earlier work
rat [2] = conditions: Salvemini et al. 2001; cited from earlier work
rat [3] = conditions: Salvemini et al. 1999; cited from earlier work
adult mice = conditions: lethal total body irradiation, Thompson et al. 2010; cited from earlier work
[4] = test system: PARP (poly (ADP ribosyl) polymerase); test: PARP activation in H460 cells (Western blot, 89 kd active/116 kd inactive form); type: cell-based, human
Text: PARP is a nuclear enzyme involved in DNA repair of single strand breaks and is activated following cell stress including chemotherapy and irradiation.

H1299 (wild type) cells [5] = test: Mitochondrial superoxide, MitoSOX probe, flow cytometer, H1299; type: cell-based, human
[6] = test system: H1299 human NSCLC cells, modified to inducibly overexpress catalase (H1299CAT); test: Survival of H1299CAT cells with GC4419, cisplatin and catalase overexpression; type: cell-based; parameters: dose or concentration left out as unconfirmed; conditions: GC4419 added to cisplatin, 120 hours
Text: CAT overexpression in this line (H1299CAT) was induced by administration of doxycycline, which turned on transcription of the inserted catalase genes.

rat [7] = conditions: rat model, Tuder et al. 2003; cited from earlier work
H460 cells [8] = test: Total reactive oxygen species, CellROX probe, flow cytometer, H460; type: cell-based, human
Method: (§1) After the treatments and incubations CellROX fluorogenic probes for total ROS were added for 30 minutes continued incubation and the CellROX signal was measured using a flow cytometer.

[9] = test system: PARP (poly (ADP ribosyl) polymerase); test: PARP activation in H1299 (wild type) cells (Western blot); type: cell-based, human
[10] = test system: H460 human non-small cell lung carcinoma (NSCLC) cells; test: Survival of H460 cells in culture with GC4419 and cisplatin; type: cell-based; parameters: dose or concentration left out as unconfirmed; conditions: GC4419 added to indicated concentrations of cisplatin, 120 hrs, vs cisplatin alone
Method: After 120 hrs the surviving fraction of cells was determined.

Male C57BL/6J mice = test: Cisplatin-induced acute kidney injury (AKI) model in mice; type: in vivo, mouse
Text: 4 month old male C57BL/6J mice (young) were purchased from Jackson Laboratories and 18 month old mice (old) were obtained as collaboration with Dr. Amy Sindler (University of Iowa) from the National institute of Aging. All mice were maintained in accordance with ACURF approval #4121235 at the University of Iowa Animal Care facility. Mice were maintained on normal diets and water ad libitum through the course of the experiment.
Animals were weighed every other day following the start of treatment with GC4419.

CBA/CaJ mice = test: In vivo multicycle mouse model of cisplatin toxicity; conditions: 10 mg/kg GC4419 1 hour prior to 3.0 mg/kg cisplatin IP
H460 cells [11] = test: Hydrogen peroxide, PO-1 probe, H460; type: cell-based, human
[12] = test system: athymic female Nu/Nu (nude) mice; test: Cisplatin-induced hematotoxicity in SQ20B tumor-bearing nude mice; type: in vivo, mouse
Method: 7 week old athymic female Nu/Nu (nude) mice were implanted in a hind leg with SQ20B human head and neck squamous cell carcinoma cells. […] Mice were assessed for blood counts by tail vein blood collection either 2 days or 2 weeks after the treatment period.

[13] = test system: hair cells in mouse cochlea cultures; test: Cochlear organotypic cultures with cisplatin, hair cell number; type: cell-based
Method: Cochlear organotypic cultures. C57BL/10J mice were decapitated on postnatal day 2 or 3. The stria vascularis and spiral ligament was removed and the organ of Corti and spiral ganglion neurons from the middle turn of the cochlea dissected out. The middle turn of the cochlea was placed in a collagen matrix and 1 ml of serum-free BME plus serum free supplement, 1% bovine serum albumin, 2 mM glutamine, 5 mg/ml glucose, and 10 U/ml penicillin on a collagen pre-prepared culture dish. The cochlear explants were incubated at 4% O2, 37° C. in 5% CO2 for 2 h. […] After 24 hours the cultures were fixed for 4 h in 4% paraformaldehyde as previously described (see, e.g., McFadden et al., Toxicol Appl Pharmacol. 2003; 186(1):46-54) and immersed in rhodamine-labeled phalloidin in PBS for 30 min. […] Tissues were examined histologically for inner and outer hair cell organization and number as previously described. Dihydroethidium (DHE) was used to measure oxidative stress. […] The cochlear specimens were incubated with 1 μm DHE for 30 min at 37° C. and then fluorescent images obtained with a confocal laser microscope as previously described (see, e.g., Fetoni et al., The Journal of neuroscience: the official journal of the Society for Neuroscience. 2013; 33(9):4011-23).

H1299 (wild type) cells [14] = test: Total reactive oxygen species, CellROX probe, flow cytometer, H1299; type: cell-based, human
Method: as §1

H1299 (wild type) cells [15] = test: Hydrogen peroxide, PO-1 probe, H1299; type: cell-based, human
[16] = test system: PARP (poly (ADP ribosyl) polymerase); test: PARP activation in H1299CAT cells with doxycycline induction of CAT overexpression; type: cell-based, human; conditions: CAT induced with doxycycline
Text: When treated with doxcycline, H1299CAT cells express greater levels of human catalase (CAT) than the “parent” cells, H1299 (wild type), eliminating all or part of the H2O2 generated from superoxide by GC4419 or other Mn pentaaza macrocyclic dismutase mimetics.

[17] = test system: head-and-neck cancer patients; conditions: patients undergoing chemoradiation therapy, Anderson 2015; cited from earlier work
head and neck patients = conditions: concurrent chemoradiotherapy; cited from earlier work
H460 cells [18] = test: Mitochondrial superoxide, MitoSOX probe, flow cytometer, H460; type: cell-based, human
[19] = test system: hair cells in mouse cochlea cultures; test: Mouse cochlea cultures with paclitaxel, hair cell number; type: cell-based; conditions: 2 μM GC4419 for 48 or 72 hours (24 hour pre-treatment) with paclitaxel 0.1 μM and 1 μM
Method: Pups from C57BL/B16 pregnant female mice were decapitated on postnatal day 3. The stria vascularis and spiral ligament were removed, and the cochlea dissected out. The cochlea was placed in 400 ul of DMEM 5% FBS on a collagen pre-prepared culture dish and incubated at 4% O2, 37° C. in 5% CO2 for 24 hours. The medium was then exchanged with new medium that contained paclitaxel 0, 100 nM, and 1 μM, with and without 2 μM GC4419 for 48 hours, or pretreated for 24 hours with 2 μM GC4419 followed by paclitaxel treatment. The explants were then fixed for 1 hour in 4% paraformaldehyde. Specimens were stained with anti-myosin-VIIa antibody. Specimens were mounted and examined under a fluorescence microscope and hair cells counted using the image analysis software Imaris.

[20] = test system: hair cells of the cochlea; conditions: cited from earlier work
patients = conditions: human, in vivo; cited from earlier work
[21] = H1299, GC4419 added to cisplatin or cisplatin plus IR
[22] = 10 mg/kg GC4419 daily + cisplatin
[23] = 10 mg/kg GC4419 daily from 4 days prior to 10 mg/kg cisplatin until euthanasia
[24] = H460, GC4419 added to cisplatin or cisplatin plus IR
[25] = 10 mg/kg GC4419 + cisplatin + IR
[26] = 10 mg/kg GC4419 + cisplatin + IR, 2 days and 2 weeks after end of treatment
[27] = H1299, cisplatin or cisplatin plus IR
[28] = H460, cisplatin or cisplatin plus IR

## [Cl-].[Cl-].[Mn+2].c1cc2nc(c1)CN[C@@H]1CCCC[C@H]1NCCN[C@@H]1CCCC[C@H]1NC2 [GC4403]
[1]
  injury to the colon: very significantly reduce the injury to the colon
hamster
  radiation damage: attenuate the radiation damage
Rat [2]
  joint disease: prevent joint disease
Rat [3]
  inflammation: inhibit inflammation
Adult mice
  radiation damage: attenuate the radiation damage

## [Cl][Mn][Cl].c1cc2nc(c1)CN[C@H]1CCCC[C@@H]1NCCN[C@H]1CCCC[C@@H]1NC2 [GC4419]
[4]; 24 μM GC4419 added to 6 Gy IR + 1 μM cisplatin, 24 hr
  PARP activity (ratio 89 kd active to 116 kd inactive form): significantly increased (p<0.01)
[4]; 24 μM GC4419 added to 6 Gy IR, 24 hr, vs radiation alone
  PARP activity (ratio 89 kd active to 116 kd inactive form): significantly increased PARP activity
[4]; 24 M GC4419 added to 1 M cisplatin, 24 hours, vs cisplatin
  PARP activity (ratio 89 kd active to 116 kd inactive form): further and significantly (p<0.01) increased PARP activity
H1299 (wild type) cells [5]; [21]
  mitochondrial superoxide (MitoSOX signal): significantly reduced the increase in mitochondrial superoxide
H1299 (wild type) cells [5]; H1299, GC4419 alone
  basal levels of mitochondrial superoxide (MitoSOX signal): significantly reduced the basal levels of mitochondrial superoxide
[6]; with CAT overexpression (doxycycline)
  surviving fraction of cells: abrogated the GC4419 contribution to cisplatin response
[6]; without CAT overexpression (wt), vs cisplatin alone
  surviving fraction of cells: decreased the surviving fraction
Rat [7]
  VEGFr inhibitor-induced pulmonary disease: attenuate VEGFr inhibitor-induced pulmonary disease
H460 cells [8]; H460, 24 M GC4419 used alone
  total ROS (CellROX signal): little effect on total ROS
H460 cells [8]; H460, GC4419 added to cisplatin therapy
  total ROS (CellROX signal): synergistic effect on total ROS
[9]; 24 μM GC4419 added to 10 μM cisplatin, 24 hr, vs cisplatin
  PARP activity (ratio 89 kd active to 116 kd inactive form): further and significantly p<0.01) increased PARP activity
[9]; 24 M GC4419 added to 6 Gy IR + 1 M cisplatin, 24 hours
  PARP activity (ratio 89 kd active to 116 kd inactive form): significantly increased (p<0.0.05)
[9]; 24 M GC4419 added to 6 Gy IR, 24 hours, vs radiation alone
  PARP activity (ratio 89 kd active to 116 kd inactive form): significantly increased PARP activity
[10]
  surviving fraction of cells: decreased the surviving fraction
Male C57BL/6J mice; [22]
  kidney injury molecule 1 (KIM1) biomarker: prevented that injury
  neutrophil gelatinase-associated lipocalin (NGAL) biomarker: prevented that injury
Male C57BL/6J mice; 10 mg/kg GC4419 daily + cisplatin, old mice
  survival: prevented cisplatin mortality
Male C57BL/6J mice; 10 mg/kg GC4419 daily + cisplatin, young and old mice
  weight loss: reduced the amount of weight loss
Male C57BL/6J mice; [23]
  creatinine level: completely prevented these increases in BUN and creatinine
  whole blood urea nitrogen (BUN) level: completely prevented these increases in BUN and creatinine
CBA/CaJ mice
  weight loss (FIG. 14): reduced the amount of weight loss caused by cisplatin
H460 cells [11]; [24]
  H2O2 (PO-1 probe): significantly further increases the increase in H2O2
H460 cells [11]; H460, GC4419 alone
  basal levels of H2O2 (PO-1 probe): significantly increases both the basal levels of H2O2
[12]; [25]
  eosinophil percentage: maintained eosinophil percentage at apparently normal levels
  neutrophil percentage: maintained neutrophil percentage at apparently normal levels
[12]; [26]
  leukocyte (WBC) count: stimulated leukocyte (WBC)
  lymphocyte subset: proportionally lymphocyte subset production
[12]; 10 mg/kg GC4419 every day + cisplatin + IR, two days after end of treatments
  platelets: significantly restored platelet levels
[13]; GC4419 0.5, 2 or 4 μM with cisplatin, 24 h
  number of hair cells (FIG. 12A): dose-dependent protection against hair cell damage
[13]; GC4419 with cisplatin
  hair cell damage, microscopy images (FIG. 12B): reduced damage to the hair cells caused by cisplatin and preserved the number of hair cells
H1299 (wild type) cells [14]; H1299, 24 M GC4419 used alone
  total ROS (CellROX signal): little effect on total ROS
H1299 (wild type) cells [14]; H1299, GC4419 added to cisplatin therapy
  total ROS (CellROX signal): synergistic effect on total ROS
H1299 (wild type) cells [15]; [21]
  H2O2 (PO-1 probe): significantly further increases the increase in H2O2
H1299 (wild type) cells [15]; H1299, GC4419 alone
  basal levels of H2O2 (PO-1 probe): significantly increases both the basal levels of H2O2
[16]; 24 M GC4419 + 1 M cisplatin, 24 hours (p<0.01, FIG. 6B)
  PARP activation response to cisplatin: significantly (p<0.05) reduced the PARP activation response
[16]; 24 M GC4419 + 6 Gy IR + 1 M cisplatin, 24 hours (p<0.001, FIG. 6C)
  PARP activation response to IR+cisplatin: significantly (p<0.05) reduced the PARP activation response
[16]; 24 M GC4419 + 6 Gy IR, 24 hours (p<0.05, FIG. 6C)
  PARP activation response to IR: significantly (p<0.05) reduced the PARP activation response
[17]
  oral mucositis: reduce oral mucositis
Head and neck patients
  incidence of chronic kidney disease: significantly decrease the incidence of chronic kidney disease
H460 cells [18]; [24]
  mitochondrial superoxide (MitoSOX signal): significantly reduced the increase in mitochondrial superoxide
H460 cells [18]; H460, GC4419 alone
  basal levels of mitochondrial superoxide (MitoSOX signal): significantly reduced the basal levels of mitochondrial superoxide
[19]
  number of hair cells (FIG. 15): protective effect of GC4419 on the hair cells

## N.N.[Cl][Pt][Cl] [cisplatin, reference compound]
H1299 (wild type) cells [5]; [27]
  mitochondrial superoxide (MitoSOX signal): increase in mitochondrial superoxide
H460 cells [8]; H460, 1 M cisplatin or cisplatin plus 6 Gy IR
  total ROS (CellROX signal): increased total ROS
[20]
  damage to inner hair cells (IHCs): sparing of inner hair cells (IHCs)
  damage to outer hair cells (OHCs): profoundly damages outer hair cells (OHCs)
H460 cells [11]; [28]
  H2O2 (PO-1 probe): increase in H2O2
H1299 (wild type) cells [14]; H1299, 1 M cisplatin or cisplatin plus 6 Gy IR
  total ROS (CellROX signal): increased total ROS
H1299 (wild type) cells [15]; [27]
  H2O2 (PO-1 probe): increase in H2O2
patients
  mean cHL: 36 dB
H460 cells [18]; [28]
  mitochondrial superoxide (MitoSOX signal): increase in mitochondrial superoxide
